The term EC50 denotes the concentration at which the effect is half-maximal. A high value points to a need for much substance.

We go through five molecules from US7015329B2 (Janssen Pharmaceutica N. V., priority 2003, dated 2006).

A value given as a limit tells only on which side of the number the result lay.

One assay deals with T1, PPAR alpha (Homo sapiens, UniProt Q07869).
T1 construct: expressed in transfected cells; host or cells: HEK293
T1 sequence (Q07869 239-466 limits assumed): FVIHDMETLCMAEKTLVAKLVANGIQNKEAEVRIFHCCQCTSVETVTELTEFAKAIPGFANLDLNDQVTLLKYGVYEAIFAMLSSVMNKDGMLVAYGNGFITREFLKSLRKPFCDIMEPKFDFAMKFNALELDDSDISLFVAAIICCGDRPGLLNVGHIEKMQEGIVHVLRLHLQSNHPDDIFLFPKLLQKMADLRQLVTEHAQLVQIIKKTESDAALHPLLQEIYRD
The assay is described as follows: Transfection assay for PPAR receptors (GAL4-LBD luciferase reporter), PPAR alpha. Format: cell-based. The settings on record: 18–24 hrs. How it is done: (§1) Transfection Assay Method for PPAR Receptors
(§2) HEK293 cells were grown in DMEM/F12 medium supplemented with 10% FBS and glutamine (Invitrogen) and incubated in a 5% CO2 incubator at 37° C. The cells were co-transfected using DMRIE-C reagent (Invitrogen) in serum free medium (Opti-MEM, Invitrogen) with two mammalian expression plasmids, one containing the DNA sequence coding for the ligand binding domains of either PPARαg or d fused to the yeast GAL4 DNA binding domain and the other containing the promoter sequence of the yeast GAL4 (UAS) fused to the firefly luciferase cDNA reporter. The next day, the medium was changed to DMEM/F12 medium supplemented with 5% charcoal treated serum (Hyclone) and glutamine. After 6 hrs the cells were trypsinized and seeded at a density of 50,000 cells/well into 96 well plates and incubated overnight as above. The cells were then treated with -test compounds or vehicle and incubated for 18–24 hrs as above. Luciferase reporter activity was measured using the Steady-Glo Luciferase Assay Kit from Promega. DMRIE-C Reagent was purchased from GIBCO Cat. No.10459-014. OPTI-MEM I Reduced Serum Medium was purchased from GIBCO (Cat. No. 31985). Steady-Glo Luciferase Assay Kit was purchased from Promega (Part#E254B).
A variety of example compounds have been made and tested, with a range of in vitro results. Below are representative compounds and data; in some cases, where multiple EC50's are shown, multiple measurements were taken. Naturally, different compounds in Formula (I) may have not have activities identical to any one compound below.

The next assay deals with T2, PPAR gamma (Homo sapiens, UniProt P37231).
T2 construct: expressed in transfected cells; host or cells: HEK293
T2 sequence (P37231 238-503 limits assumed): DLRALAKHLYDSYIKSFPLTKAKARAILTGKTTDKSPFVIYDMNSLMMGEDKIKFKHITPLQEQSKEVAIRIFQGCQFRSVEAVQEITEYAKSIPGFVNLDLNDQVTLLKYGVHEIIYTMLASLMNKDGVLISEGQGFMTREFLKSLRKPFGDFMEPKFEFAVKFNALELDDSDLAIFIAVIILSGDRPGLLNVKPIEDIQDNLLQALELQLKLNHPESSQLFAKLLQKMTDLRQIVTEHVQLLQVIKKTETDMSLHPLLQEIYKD
The assay is described as follows: Transfection assay for PPAR receptors (GAL4-LBD luciferase reporter), PPAR gamma. Format: cell-based. The settings on record: 18–24 hrs. How it is done:
as §1
as §2, with “OPTI-MEM I Reduced Serum Medium was purchased from GIBCO (Cat. No. 31985).” left out

The target in the next assay is T3, PPAR delta (Homo sapiens, UniProt Q03181).
T3 construct: expressed in transfected cells; host or cells: HEK293
T3 sequence (Q03181 211-439 limits assumed): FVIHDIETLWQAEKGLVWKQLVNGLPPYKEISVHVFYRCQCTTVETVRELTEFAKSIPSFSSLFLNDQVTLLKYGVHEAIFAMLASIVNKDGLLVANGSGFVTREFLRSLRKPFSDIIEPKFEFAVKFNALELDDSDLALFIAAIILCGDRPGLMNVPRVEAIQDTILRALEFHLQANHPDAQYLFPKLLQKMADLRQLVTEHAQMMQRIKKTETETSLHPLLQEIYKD
Kind of assay: Transfection assay for PPAR receptors (GAL4-LBD luciferase reporter), PPAR delta. Type of assay: cell-based. The settings on record: 18–24 hrs. As to the method:
as §1
as §2, with “OPTI-MEM I Reduced Serum Medium was purchased from GIBCO (Cat. No. 31985).” left out
For orientation: A reporter such as luciferase makes a cellular process visible.

Assay [1] concerns differentiated THP-1 monocytes. The settings on record: cited from earlier work.
[2] abbreviates: Table 1, HEK293 cells co-transfected with PPAR LBD-GAL4 and GAL4 (UAS) luciferase reporter.
Setting [3] is: Table 2, compounds of interest, HEK293 cells, PPAR LBD-GAL4 luciferase reporter.

With `Cc1cc(OCc2nc(-c3ccc(Cl)c(Cl)c3)ns2)ccc1OC(C)(C)C(=O)O` [Compound 26, 2-{4-[3-(3,4-Dichloro-phenyl)-[1,2,4]thiadiazol-5-ylmethoxy]-2-methyl-phenoxy}-2-methyl-propionic acid], the concentration for a half-maximal effect (EC50) at PPAR alpha (setting [2]) is 0.504 µM; at PPAR gamma (setting [2]) it was greater than 3 µM; at PPAR delta (setting [2]), 0.114 µM.
For the molecule `Cc1cc(SCCc2nc(-c3ccc(Cl)c(Cl)c3)ns2)ccc1OC(C)(C)C(=O)O` [Compound 27, 2-(4-{2-[3-(3,4-Dichloro-phenyl)-[1,2,4]thiadiazol-5-yl]-ethylsulfanyl}-2-methyl-phenoxy)-2-methyl-propionic acid], the EC50 on PPAR alpha (setting [2]) is 0.123 µM; on PPAR gamma (setting [2]), greater than 1 µM; at PPAR delta (setting [2]), 0.0093 µM.
`Cc1cc([S+]([O-])Cc2nc(-c3ccc(Cl)c(Cl)c3)ns2)ccc1OC(C)(C)C(=O)O` (centres unmarked) [Compound a, 2-{4-[3-(3,4-Dichloro-phenyl)-[1,2,4]thiadiazol-5-ylmethanesulfinyl]-2-methyl-phenoxy}-2-methyl-propionic acid]: the concentration for a half-maximal effect (EC50) on PPAR alpha (setting [3]) was greater than 3 µM; on PPAR gamma (setting [3]), greater than 3 µM; at PPAR delta (setting [3]), 0.412 µM.
As for `Cc1cc(SCc2csnc2-c2ccc(C(F)(F)F)cc2)ccc1OCC(=O)O` [Compound d, {2-Methyl-4-[3-(4-trifluoromethyl-phenyl)-isothiazol-4-ylmethylsulfanyl]-phenoxy}-acetic acid], the results for the 50% effective concentration (EC50) at PPAR alpha (setting [3]), at PPAR gamma (setting [3]) and on PPAR delta (setting [3]) were greater than 3 µM, greater than 3 µM and 0.15 µM, respectively.
With `Cc1cc(SCc2sc(-c3ccc(C(F)(F)F)cc3)nc2C)ccc1OCC(=O)O` [GW501516], in assay [1], the “ABCA1 mRNA expression” value is reported as “induced” and the cholesterol efflux entry is listed as “enhanced”.
